Laboratory results from US10336766B2, “Anticancer drug candidates” (THE SCRIPPS RESEARCH INSTITUTE, priority 2015, dated 2019).
Where two headings read alike, the source gives them in different places.

Columns and labels:
Assay type in all cases: cell-based, human
[1] = tested on: breast cancer cells MDA-MB-468; assay: In vitro cytotoxic activity, CELLTITER 96 AQueous One Solution (MTS) assay, MDA-MB-468; settings: 72 h treatment, mean ± SD of 3 replicates, read-out: IC50 cytotoxicity, MDA-MB-468
Description: (§1) The in vitro cytotoxic activity (IC50, half maximal inhibitory concentration) of the tiancimycins was tested against selected human cancer cell lines, such as breast cancer cells MDA-MB-468, melanoma cell M14 and SK-MEL-5, non-small cell lung cancer cell NCI-H226, central nervous system cell lines SF-295 and SF-539, and the known enediyne UCM was used as a comparison. Suspended cultures of cells were diluted to a concentration of 5×10^4 cells mL^−1 in RPMI 1640 medium supplemented with 10% fetal bovine serum, 100 μgmL^−1 streptomycin, and 100 UmL^−1 penicillin. The suspended cultures were dispensed into 96-well microtiter plates (100 μL per well) and the plates were incubated for 24 hours at 37° C. in an atmosphere of 5% CO2, 95% air, and 100% humidity. After incubation, original medium was removed and 100 μL of fresh medium was added, followed by adding serial dilutions of the tiancimycins (A, B, and C, 1 μl) and UCM (1 μl) in DMSO. The concentration of the tested compounds was ranged from 0 to 100 nM. Plates were incubated under the above conditions for 72 hours. After incubation, 20 μl CELLTITER 96® AQueous One Solution Reagent (Promega Corp, Madison, Wis., USA) was added to the plates and incubated at 37° C. in a humidified, 5% CO2 atmosphere for 30 to 60 min. The absorbance at 490 nm was recorded using an ELISA plate reader. Each point represents the mean±SD of 3 replicates. The IC50 was determined by computerized curve fitting.
(§2) Antitumor activities were assessed using CELLTITER 96® Aqueous One Solution Proliferation Assay (MTS) (Promega Corp.). Cells were plated in 96-well plate at 5000 cells/well and allowed to adhere overnight at 37° C. in a humidified atmosphere of 5% CO2. Medium was then removed and replaced by fresh culture medium containing different concentrations of different drugs. The cells were treated for 72 h before the assay was developed. All assay values were measured in triplicate.

melanoma cell M14 = assay: In vitro cytotoxic activity, CELLTITER 96 AQueous One Solution (MTS) assay, M14; settings: 72 h treatment, mean ± SD of 3 replicates, read-out: IC50 cytotoxicity, M14
Description: as §1, §2

melanoma cell SK-MEL-5 = assay: In vitro cytotoxic activity, CELLTITER 96 AQueous One Solution (MTS) assay, SK-MEL-5; settings: 72 h treatment, mean ± SD of 3 replicates, read-out: IC50 cytotoxicity, SK-MEL-5
Description: as §1, §2

[2] = tested on: non-small cell lung cancer cell NCI-H226; assay: In vitro cytotoxic activity, CELLTITER 96 AQueous One Solution (MTS) assay, NCI-H226; settings: 72 h treatment, mean ± SD of 3 replicates, read-out: IC50 cytotoxicity, NCI-H226
Description: as §1, §2

[3] = tested on: central nervous system cell line SF-295; assay: In vitro cytotoxic activity, CELLTITER 96 AQueous One Solution (MTS) assay, SF-295; settings: 72 h treatment, mean ± SD of 3 replicates, read-out: IC50 cytotoxicity, SF-295
Description: as §1, §2

[4] = tested on: central nervous system cell line SF-539; assay: In vitro cytotoxic activity, CELLTITER 96 AQueous One Solution (MTS) assay, SF-539; settings: 72 h treatment, mean ± SD of 3 replicates, read-out: IC50 cytotoxicity, SF-539
Description: as §1, §2

Structure (SMILES)	IC50 ([1]; Homo sapiens) [nM]	IC50 (melanoma cell M14; Homo sapiens) [nM]	IC50 (melanoma cell SK-MEL-5; Homo sapiens) [nM]	IC50 ([2]; Homo sapiens) [nM]	IC50 ([3]; Homo sapiens) [nM]	IC50 ([4]; Homo sapiens) [nM]	IC50 [1] [nM]	IC50 (melanoma cell M14) [nM]	IC50 (melanoma cell SK-MEL-5) [nM]	IC50 [2] [nM]	IC50 [3] [nM]	IC50 [4] [nM]
COC(=O)C(O)C(C)(O)[C@@]12OC13c1cc(O)c4c(c1N[C@H]2C#C/C=C\C#C[C@H]3O)C(=O)c1c(ccc(O)c1O)C4=O (stereo partly drawn) [TNM C, tiancimycin C]	0.07 ± 0.01	0.25 ± 0.01	0.14 ± 0.02	3.3 ± 0.3	0.28 ± 0.02	0.3 ± 0.05	–	–	–	–	–	–
COC(=O)/C=C(\C)[C@@]12OC13c1cc(O)c4c(c1N[C@H]2C#C/C=C\C#C[C@H]3O)C(=O)c1ccccc1C4=O [TNM B, tiancimycin B]	0.1 ± 0.01	0.24 ± 0.01	0.19 ± 0.04	2.8 ± 0.1	0.26 ± 0.02	0.23 ± 0.05	–	–	–	–	–	–
CC(O)[C@@]12O[C@]13c1cc(O)c4c(c1N[C@H]2C#C/C=C\C#C[C@H]3O)C(=O)c1ccccc1C4=O (stereo partly drawn) [UCM, uncialamycin, reference compound]	–	–	–	–	–	–	0.22 ± 0.03	0.47 ± 0.07	1.7 ± 0.1	4.1 ± 0.2	0.51 ± 0.05	0.67 ± 0.03
COc1ccc2c(c1O)C(=O)c1c3c(cc(O)c1C2=O)C12O[C@@]1([C@@H](C)O)[C@H](C#C/C=C\C#C[C@H]2O)N3 [TNM A, tiancimycin A]	0.1 ± 0.01	0.14 ± 0.01	0.19 ± 0.01	2.3 ± 0.1	0.14 ± 0.01	0.3 ± 0.08	–	–	–	–	–	–
